Reference: patent publication US20070128217A1 (priority 2003, published 2007)

Legend:
[1] = test system: antibodies in sera from SARS patients (sera 1a, 1b, 2, 6, 37, 62, London, SARS-yellow, SARS-green); type: binding, human; parameters: Binding of serum 6 to linear peptides of protein X1 of SARS-CoV Urbani / Binding of serum 37 to linear peptides of protein X1 of SARS-CoV Urbani / Binding of serum 6 to looped/cyclic peptide (PEPSCAN-ELISA) / Binding of serum 37 to looped/cyclic peptide (PEPSCAN-ELISA) / Binding of serum 37 to looped/cyclic peptides of protein X1 of SARS-CoV Urbani / Binding of serum 6 to linear peptides of protein X2 / Binding of serum 37 to linear peptides of protein X2 / Binding of serum 37 to looped/cyclic peptides of protein X2 of SARS-CoV Urbani / Binding of serum 6 to linear peptides of protein M of SARS-CoV Urbani / Binding of serum 37 to linear peptides of protein M of SARS-CoV Urbani / Binding of serum 6 to looped/cyclic peptides of protein M of SARS-CoV Urbani / Binding of serum 37 to looped/cyclic peptides of protein M of SARS-CoV Urbani / Binding of serum 6 to linear peptides of protein X3 of SARS-CoV Urbani / Binding of serum 37 to linear peptides of protein X3 of SARS-CoV Urbani / Binding of serum 37 to looped/cyclic peptides of protein X3 of SARS-CoV Urbani / Binding of serum 6 to linear peptides of protein X4 of SARS-CoV Urbani / Binding of serum 37 to linear peptides of protein X4 of SARS-CoV Urbani / Binding of serum 37 to looped/cyclic peptides of protein X4 of SARS-CoV Urbani / Binding of serum 6 to linear peptides of protein X5 of SARS-CoV Urbani / Binding of serum 37 to linear peptides of protein X5 of SARS-CoV Urbani / Binding of serum 37 to looped/cyclic peptides of protein X5 of SARS-CoV Urbani / Binding of serum 6 to linear peptides of protein N of SARS-CoV Urbani / Binding of serum 37 to linear peptides of protein N of SARS-CoV Urbani / Binding of serum 6 to linear peptide (PEPSCAN-ELISA) / Binding of serum 1a to looped/cyclic peptides of protein N of SARS-CoV Urbani / Binding of serum 1b to looped/cyclic peptides of protein N of SARS-CoV Urbani / Binding of serum 2 to looped/cyclic peptides of protein N of SARS-CoV Urbani / Binding of serum 6 to looped/cyclic peptides of protein N of SARS-CoV Urbani / Binding of serum 37 to looped/cyclic peptides of protein N of SARS-CoV Urbani / Binding of serum 62 to looped/cyclic peptides of protein N of SARS-CoV Urbani / Binding of serum London to looped/cyclic peptides of protein N of SARS-CoV Urbani / Binding of serum SARS-green to looped/cyclic peptides of protein N of SARS-CoV Urbani: unit not given here
[2] = test system: control sera (pooled serum of ten healthy LUMC hospital workers; commercial negative donor pooled serum from the Dutch bloodbank); type: binding, human; parameters: Binding of Control serum LUMC to linear peptides / Binding of Control serum Blood-bank to linear peptides / Binding of Control serum LUMC to looped peptides / Binding of Control Serum Blood-Bank to Looped peptides / Binding of Control serum LUMC to linear peptides of the protein M of SARS-CoV Urbani / Binding of Control serum Blood-bank to linear peptides of the protein M of SARS-CoV Urbani / Binding of Control serum LUMC to looped peptides of the protein M of SARS-CoV Urbani / Binding of Control Serum Blood-Bank to Looped peptides of the protein M of SARS-CoV Urbani: unit not given here
[3] = test system: rabbit serum obtained by immunizing a rabbit with the SARS-CoV strain Frankfurt 1; type: binding; parameters: Binding of a rabbit serum to linear peptides / Binding of a rabbit serum to looped peptides / Rabbit serum linear peptides / Rabbit serum looped peptides / Binding of a rabbit serum to linear peptides of protein N of SARS-CoV Urbani (Rabbit serum linear peptides) / Binding of a rabbit serum to looped/cyclic peptides of protein N of SARS-CoV Urbani (Rabbit serum looped peptides): unit not given here

## PFGWLVIGVAFLAVF
[1]
  Binding of serum 1a to linear peptides of protein X1 of SARS-CoV Urbani: 0.7
  Binding of serum 1a to looped/cyclic peptide (PEPSCAN-ELISA): 0.5
  Binding of serum 1b to linear peptides of protein X1 of SARS-CoV Urbani: 0.5
  Binding of serum 1b to looped/cyclic peptide (PEPSCAN-ELISA): 0.4
  Binding of serum 2 to linear peptides of protein X1 of SARS-CoV Urbani: 0.5
  Binding of serum 2 to looped/cyclic peptide (PEPSCAN-ELISA): 0.5
  Binding of serum 6 to linear peptides of protein X1 of SARS-CoV Urbani: 0.4
  Binding of serum 6 to looped/cyclic peptide (PEPSCAN-ELISA): 0.2
  Binding of serum 37 to linear peptides of protein X1 of SARS-CoV Urbani: 0.7
  Binding of serum 37 to looped/cyclic peptide (PEPSCAN-ELISA): 0.5
  Binding of serum 62 to linear peptides of protein X1 of SARS-CoV Urbani: 0.6
  Binding of serum 62 to looped/cyclic peptide (PEPSCAN-ELISA): 0.5
  Binding of serum London to linear peptides of protein X1 of SARS-CoV Urbani: 0.3
  Binding of serum London to looped/cyclic peptide (PEPSCAN-ELISA): 0.2
  Binding of serum SARS-green to linear peptides of protein X1 of SARS-CoV Urbani: 0.3
  Binding of serum SARS-green to looped/cyclic peptide (PEPSCAN-ELISA): 0.4
  Binding of serum SARS-yellow to linear peptides of protein X1 of SARS-CoV Urbani: 0.7
  Binding of serum SARS-yellow to looped/cyclic peptide (PEPSCAN-ELISA): 0.5
[2]
  Binding of Control Serum Blood-Bank to Looped peptides: 0.5
  Binding of Control serum Blood-bank to linear peptides: 0.5
  Binding of Control serum LUMC to linear peptides: 0.5
  Binding of Control serum LUMC to looped peptides: 0.5
[3]
  Binding of a rabbit serum to linear peptides: 1.1
  Binding of a rabbit serum to looped peptides: 0.5

## VFTSCELYHYQECVR
[1]
  Binding of serum 1a to linear peptides of protein X4 of SARS-CoV Urbani: 0.8
  Binding of serum 1a to looped/cyclic peptides of protein X4 of SARS-CoV Urbani: 0.8
  Binding of serum 1b to linear peptides of protein X4 of SARS-CoV Urbani: 0.6
  Binding of serum 1b to looped/cyclic peptides of protein X4 of SARS-CoV Urbani: 0.7
  Binding of serum 2 to linear peptides of protein X4 of SARS-CoV Urbani: 0.4
  Binding of serum 2 to looped/cyclic peptides of protein X4 of SARS-CoV Urbani: 0.7
  Binding of serum 6 to linear peptides of protein X4 of SARS-CoV Urbani: 0.7
  Binding of serum 6 to looped/cyclic peptides of protein X4 of SARS-CoV Urbani: 0.7
  Binding of serum 37 to linear peptides of protein X4 of SARS-CoV Urbani: 0.8
  Binding of serum 37 to looped/cyclic peptides of protein X4 of SARS-CoV Urbani: 0.8
  Binding of serum 62 to linear peptides of protein X4 of SARS-CoV Urbani: 0.8
  Binding of serum 62 to looped/cyclic peptides of protein X4 of SARS-CoV Urbani: 0.7
  Binding of serum London to linear peptides of protein X4 of SARS-CoV Urbani: 0.7
  Binding of serum London to looped/cyclic peptides of protein X4 of SARS-CoV Urbani: 0.3
  Binding of serum SARS-green to linear peptides of protein X4 of SARS-CoV Urbani: 0.7
  Binding of serum SARS-green to looped/cyclic peptides of protein X4 of SARS-CoV Urbani: 0.7
  Binding of serum SARS-yellow to linear peptides of protein X4 of SARS-CoV Urbani: 0.3
  Binding of serum SARS-yellow to looped/cyclic peptides of protein X4 of SARS-CoV Urbani: 0.5
[2]
  Binding of Control Serum Blood-Bank to Looped peptides: 0.7
  Binding of Control serum Blood-bank to linear peptides: 0.7
  Binding of Control serum LUMC to linear peptides: 0.5
  Binding of Control serum LUMC to looped peptides: 0.9
[3]
  Rabbit serum linear peptides: 0.5
  Rabbit serum looped peptides: 0.5

## SSSLTSLLKTHRMCK
[1]
  Binding of serum 1a to linear peptides of protein X2: 0.6
  Binding of serum 1a to looped/cyclic peptides of protein X2 of SARS-CoV Urbani: 0.3
  Binding of serum 1b to linear peptides of protein X2: 0.5
  Binding of serum 1b to looped/cyclic peptides of protein X2 of SARS-CoV Urbani: 0.4
  Binding of serum 2 to linear peptides of protein X2: 0.4
  Binding of serum 2 to looped/cyclic peptides of protein X2 of SARS-CoV Urbani: 0.1
  Binding of serum 6 to linear peptides of protein X2: 0.8
  Binding of serum 6 to looped/cyclic peptides of protein X2 of SARS-CoV Urbani: 0.1
  Binding of serum 37 to linear peptides of protein X2: 0.6
  Binding of serum 37 to looped/cyclic peptides of protein X2 of SARS-CoV Urbani: 0.2
  Binding of serum 62 to linear peptides of protein X2: 0.7
  Binding of serum 62 to looped/cyclic peptides of protein X2 of SARS-CoV Urbani: 0.3
  Binding of serum London to linear peptides of protein X2: 0.6
  Binding of serum London to looped/cyclic peptides of protein X2 of SARS-CoV Urbani: 0.1
  Binding of serum SARS-green to linear peptides of protein X2: 0.6
  Binding of serum SARS-green to looped/cyclic peptides of protein X2 of SARS-CoV Urbani: 0.3
  Binding of serum SARS-yellow to linear peptides of protein X2: 0.2
  Binding of serum SARS-yellow to looped/cyclic peptides of protein X2 of SARS-CoV Urbani: 0.5
[2]
  Binding of Control Serum Blood-Bank to Looped peptides: 0.4
  Binding of Control serum Blood-bank to linear peptides: 1.0
  Binding of Control serum LUMC to linear peptides: 0.7
  Binding of Control serum LUMC to looped peptides: 0.4
[3]
  Binding of a rabbit serum to linear peptides: 0.3
  Binding of a rabbit serum to looped peptides: 0.2
